For one test, the system named is Splenic B-lymphocytes. Put plainly: Inhibition of B-lymphocyte proliferation. The class given is cell-based, Balb/c mice. To be noted: 48 hours. The procedure:
Splenic B-lymphocytes were obtained from Balb/c mice by disruption of the spleen through a nylon sieve. The resultant cellular suspension was washed three times by centrifugation. The spleen cells were then plated out in flat-bottomed 96 well microtitre plates at a concentration of 2-4×10^5 cells per well. B-lymphocyte stimulators were added with or without compound. Stimulators employed were lipopolysaccharide (LPS) at 50 μg/ml, 8-mercaptoguanosine (8MG) at 100 μg/ml, or goat anti mouse IgM at 40 μg/ml. […] The cultures were incubated for 48 hours at 37° C. and pulsed with tritiated thymidine for the final 6 hours. The cells were harvested as described previously and thymidine uptake used as a measure of DNA synthesis.

Test [1] has as its system activated T-lymphocytes. Put plainly: Extracellular lactate levels in activated T-lymphocytes (lactate oxidase). The test is classed as cell-based, human. The note with it: Homo sapiens, T-lymphocyte; Mean±s.e.mean (mean±range for n=2); read-out: pIA50 Extracellular Lactate (converted). The procedure: (§1) PBMCs were prepared as described above by separation over Lymphoprep and T-lymphocytes were then enriched by purification on a nylon wool column. Briefly, 0.6 g nylon wool was inserted into a 10 ml syringe and this was autoclaved. […] The PBMC were resuspended in 1 ml of pre-warmed RPMI (20% HS) and were loaded onto the nylon wool column. The column was incubated for 45 min at 37° C. followed by elution of the T-cells by adding 10 ml RPMI (20% HS) (prewarmed to 37° C.) dropwise to the column. The T-cells obtained from the elution of the column were centrifuged (850 g for 5 min) and resuspended in RPMI containing L-glutamine and 5% human serum and stimulated with 0.5 ng/ml PMA and 500 ng/ml lonomycin for 48 h.
20 μl of each concentration were added to triplicate wells of a 96-well plate. T-cells were then added (200 μl per well, 2×10^5 cells) and were cultured for 4 h under standard cell culture conditions. The cell supernatants were collected from each well after the cells were pelleted by centrifugation of the plate at 850 g for 5 min at 4° C. 10 μl of each supernatant sample were used for the lactate determination.
(§2) The assay was carried out in 96-well plates at room temperature. 10 μl of standard or sample were added to each well followed by 200 μl of the Lactate Reagent. […] The data were collected and analysed using SOFTmax PRO software (Molecular Devices).

For test [2], the system named is activated T-lymphocytes. Put plainly: DNA synthesis ([3H]-thymidine incorporation) in activated T-lymphocytes. The class given is cell-based. To be noted: Homo sapiens, T-lymphocyte; Mean±s.e.mean (mean±range for n=2); read-out: pIA50 DNA (converted). The procedure: as §1
DNA synthesis was assessed by measuring the incorporation of [^3H]-thymidine. The assay was carried out in a 96-well plate. 20 μl of test compounds at 10× the final concentration were added to the plate followed by 200 μl of T-cells per well (2×10^5 cells). The cells were cultured for 4 h under standard cell culture conditions and cultures were pulsed with ^3H-thymidine (0.5 μCi/well; Amersham) for the final hour of the incubation.

The target in a further test is T1, human MCT1 (Homo sapiens, UniProt P53985, D490E).
T1 sequence (P53985 1-500 D490E): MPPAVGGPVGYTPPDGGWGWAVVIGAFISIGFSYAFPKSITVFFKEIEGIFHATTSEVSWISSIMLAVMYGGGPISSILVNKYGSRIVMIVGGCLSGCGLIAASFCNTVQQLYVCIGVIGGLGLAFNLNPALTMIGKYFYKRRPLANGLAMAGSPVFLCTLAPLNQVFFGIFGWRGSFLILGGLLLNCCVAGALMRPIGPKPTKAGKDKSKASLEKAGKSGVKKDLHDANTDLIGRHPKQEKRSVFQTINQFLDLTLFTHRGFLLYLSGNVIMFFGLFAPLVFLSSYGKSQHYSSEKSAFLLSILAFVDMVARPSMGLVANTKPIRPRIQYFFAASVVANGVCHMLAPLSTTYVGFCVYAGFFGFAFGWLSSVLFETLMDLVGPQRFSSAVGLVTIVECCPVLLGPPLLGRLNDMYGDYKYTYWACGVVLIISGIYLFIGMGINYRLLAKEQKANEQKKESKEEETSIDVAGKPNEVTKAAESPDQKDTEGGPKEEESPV
T1 sequence (P26453 142-388 partner limits assumed): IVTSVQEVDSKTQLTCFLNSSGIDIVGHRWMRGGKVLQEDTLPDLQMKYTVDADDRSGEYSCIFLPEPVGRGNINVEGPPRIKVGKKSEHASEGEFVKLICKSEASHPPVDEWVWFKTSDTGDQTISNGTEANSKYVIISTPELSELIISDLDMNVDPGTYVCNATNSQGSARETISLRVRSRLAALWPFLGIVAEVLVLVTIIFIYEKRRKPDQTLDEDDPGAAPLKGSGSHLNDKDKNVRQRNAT
Put plainly: Lactate uptake by change in intracellular pH (BCECF) in INS-1 cells expressing MCT. The class given is cell-based. The note with it: 100 nM, INS-1 cells expressing human MCT1, n=2.

Test [3] deals with peripheral blood mononuclear cells (PBMC). Put plainly: T-lymphocyte proliferation, PMA/ionomycin stimulated PBMC, 3 days. The note with it: Homo sapiens, 72 h, read-out: pIA50 Proliferation (3 days) (converted).
Excerpt: The cell signalling pathways triggered by T-cell activation through the T cell receptor and CD28 can be mimicked in vitro using a phorbol ester, phorbol 12-myristate 13-acetate (PMA), which activates protein kinase C, and ionomycin, which induces calcium release from internal cellular stores. PMA and ionomycin-stimulated proliferation of peripheral blood mononuclear cells (PBMC), of which the predominant cell type is T-lymphocytes, provides a suitable assay for measuring the ability of small molecules to block T-cell proliferation.
Blood was centrifuged at 850 g for 10 minutes and the plasma was removed. […] The blood/Lymphoprep layers were centrifuged at 850 g for 20 minutes at 18° C. (with no brake).
10 μl of compound in solution was then added to the 96-well flat bottom assay plate (final volume of 200 μl). […] Both were diluted to 4× the final assay concentration in complete medium. 50 μl of each reagent was dispensed per well to give a final assay concentration of 0.5 ng/ml PMA and 500 ng/ml ionomycin. Control wells received 100 μl cells with PMA only (negative control 1), with ionomycin only (negative control 2) and 100 μl cells with 50 μl PMA and 50 μl ionomycin with no test compound (positive control). 100 μl complete medium was added to the negative controls. […]
Test [4] concerns activated T-lymphocytes. Put plainly: Intracellular lactate levels in activated T-lymphocytes (lactate oxidase). The class given is cell-based. To be noted: Homo sapiens, T-lymphocyte; Mean±s.e.mean (mean±range for n=2); read-out: pIA50 Intracellular Lactate (converted). The procedure: as §1
100 μl of each concentration were added to triplicate wells of a 24-well plate. T-cells were then added (1 ml per well) and were cultured for 4 h under standard cell culture conditions. The cells were then transferred from each well to microfuge tubes and were centrifuged at 360 g for 5 min at 4° C. The supernatant was discarded and the cell pellet was resuspended in 1 ml of ice-cold PBS, pH5.0. The cells were washed twice in PBS by centrifugation (360 g, 5 min, 4° C.) followed by resuspension of the cell pellet in 100 μl deionized water. The cells were incubated for 15 min at 4° C. to allow cell lysis to occur and the cell debris was removed by centrifugation at 15000 g for 10 min at 4° C. 10 μl of each supernatant sample were used for the lactate determination.
as §2

Like-named read-outs stand apart in the source and are kept apart here.

Consider one molecule from patent US20040072746A1, “Inhibitors of monocarboxylate transport” (priority 2001, published 2004).

Excerpt for human MCT1: As lactate entry into cells is proton-linked, the addition of exogenous lactate to cells expressing functionally active MCT isoforms results in a significant decrease in intracellular pH. Lactate uptake by this method can be measured in cells endogenously expressing MCT isoforms (e.g., K562 and MDA-MB231 cells) or in cells transfected with cloned MCT isoforms (e.g., MCT1, 3 and 4) expressed in SF9 or INS-1 cells as follows. […] INS-1 cells were transfected with pcDNA3-hMCT1 using the Fugene™ 6 Transfection Reagent (Roche Molecular Biochemicals, Indianapolis, Ind., USA) to manufacturers instructions. Stably transfected cells were selected with 100 μg/ml Genetecin (Gibco Laboratories, Grand Island, N.Y.) to generate INS-1 MCT1 mixed populations, which were subsequently dilution cloned to generate INS-1 MCT1 clones. […]
Following BCECF labelling, 10 μl of the relevant cell suspension was added to each well of a 96 well plate (Biocat Poly-D-Lysine coated clear-bottomed black plates, Becton Dickinson) and 10 μl of inhibitor or vehicle control was added per well at 10× final concentration. […] The 96 well plate was then placed in the FLEXstation and fluorescence was measured using the following wavelengths:
The experiment was set up so that a reading at time zero was made, the lactate was added to the plate, and then readings were made every 3 seconds for 3 mins. […]

Take `CC(C)Cc1nn(C)c(=O)c2c(SCCCO)n(Cc3cccc4ccccc34)cc12` [Ligand 2, 2,6-dihydro-7-[(3-hydroxypropyl)thio]-2-methyl-4-(2-methylpropyl)-6-(1-napthanlenylmethyl)-1H-pyrrolo[3,4-d]pyridazin-1-one]: the IC50 with Splenic B-lymphocytes (Mus musculus, 8-mercaptoguanosine 100 μg/ml, partial inhibition, read-out: IA50, proliferative response to 8MG) is 10 nM; with Splenic B-lymphocytes (Mus musculus, LPS 50 μg/ml, partial inhibition, read-out: IA50, proliferative response to LPS), 5 nM; in the test with Splenic B-lymphocytes (goat anti mouse IgM 40 μg/ml, weak, read-out: IA50, proliferative response to goat anti-mouse IgM), greater than 100 nM; with activated T-lymphocytes [1] it was 0.794 nM; in the test on activated T-lymphocytes [2], 1.35 nM; in test [3], 0.38 nM. Besides, the “effect on decrease in intracellular pH on addition of exogenous lactate” value on human MCT1 is on record as “completely abolished”. Moreover, the EC50 with activated T-lymphocytes [4] was 0.55 nM.
